Test: xn = mol fraction of the nth substance listed

C[N+](=O)[O-] + CC#N
101 kPa
Settings	viscosity [mPa·s]
298.15 K, x1 = 0.107	0.3665
298.15 K, x1 = 0.206	0.389
298.15 K, x1 = 0.301	0.4121
298.15 K, x1 = 0.398	0.4366
298.15 K, x1 = 0.502	0.4646
298.15 K, x1 = 0.598	0.4917
298.15 K, x1 = 0.7	0.5223
298.15 K, x1 = 0.792	0.5508
298.15 K, x1 = 0.895	0.5844
298.15 K, x2 = 0.1433	0.569
298.15 K, x2 = 0.3891	0.495
298.15 K, x2 = 0.39	0.496
298.15 K, x2 = 0.403	0.492
298.15 K, x2 = 0.408	0.49
298.15 K, x2 = 0.598	0.439
298.15 K, x2 = 0.698	0.413
298.15 K, x2 = 0.729	0.405
298.15 K, x2 = 0.739	0.403
298.15 K, x2 = 0.776	0.395
298.15 K, x2 = 0.9346	0.359
308.15 K, x2 = 0.1433	0.52
308.15 K, x2 = 0.3891	0.454
308.15 K, x2 = 0.598	0.404
308.15 K, x2 = 0.776	0.364
308.15 K, x2 = 0.9346	0.333
313.15 K, x1 = 0.107	0.3169
313.15 K, x1 = 0.206	0.3355
313.15 K, x1 = 0.301	0.3546
313.15 K, x1 = 0.398	0.3751
313.15 K, x1 = 0.502	0.3985
313.15 K, x1 = 0.598	0.4211
313.15 K, x1 = 0.7	0.4465
313.15 K, x1 = 0.792	0.4697
313.15 K, x1 = 0.895	0.4974
318.15 K, x2 = 0.1433	0.469
318.15 K, x2 = 0.3891	0.411
318.15 K, x2 = 0.598	0.367
318.15 K, x2 = 0.776	0.333
318.15 K, x2 = 0.9346	0.305

O=c1ccn([C@@H]2O[C@H](CO)C(O)C2O)c(=O)[nH]1 (some centres not stated) + O
viscosity [mPa·s], 101.3 kPa
Settings	293.15 K	298.15 K	303.15 K	308.15 K	313.15 K	318.15 K
x1 = 0.0001846	–	0.895	–	0.723	–	0.599
x1 = 0.0002557	–	0.897	–	0.724	–	0.601
x1 = 0.00027	1.006	0.895	0.807	0.738	0.623	–
x1 = 0.000318	–	0.898	–	0.726	–	0.602
x1 = 0.000355	1.008	0.897	0.809	0.74	0.625	–
x1 = 0.0003955	–	0.9	–	0.727	–	0.603
x1 = 0.000448	1.01	0.899	0.811	0.742	0.627	–
x1 = 0.0005076	–	0.902	–	0.729	–	0.605
x1 = 0.000533	1.012	0.901	0.813	0.744	0.628	–
x1 = 0.0005591	–	0.904	–	0.731	–	0.606
x1 = 0.00063	1.014	0.903	0.815	0.746	0.63	–
x1 = 0.00072	1.016	0.905	0.817	0.748	0.632	–

Source: the CheMixHub viscosity set
